Laboratory results published in patent publication US5200407A, “Azole derivatives and anti-ulcerative composition containing same” (Meiji Seika Kaburhiki Kaisha, priority 1989, dated 1993).

What was measured:
ulceration [1] = experiment: Water-immersion, restraint stress ulcerogenic testing; format: in vivo, Wister male rats; settings: one hour prior to stressing, water immersion restraint six hours, rats; for inhibition in vivo at 30 mg/kg: Rattus norvegicus, Table 1, suspended in 0.5% CMC
Protocol: 1. Water-immersion, restraint stress ulcerogenic testing
Wister male rats (11-week age) fasted for 18 hours were placed in a restraint cage, which was in turn immersed to a depth of the pectoral region in water at 20° to 22° C. to leave the rats under stress for six hours. Then, the rats were drawn up from the water and put down by vertebral dislocation. Afterwards, the stomach was removed, infused with 50 ml of a 5% aqueous solution of formalin and was wholly immersed in the same solution for 30 minutes for fixation. The fixed sample was dissected along the curvatura ventriculi major, and the ulcerated regions were measured along their major length (in mm) by means of slide calipers. The total sum of the measurements per rat is a value of ulceration. The compounds under test, suspended in 0.5% carboxymethylcellulose (CMC), were administered to the rats at a single dose of 5 ml/kg body weight (corresponding to 30 mg/kg body weight of the compound) one hour prior to the stressing. To a control group, only 0.5% CMC was administrated at a dose of 5 ml/kg weight. The rate of depression of ulceration was calculated according to the following equation: [formula]

Toxicity (LD50) = settings: mouse, in vivo; mice, oral
Source text: The compounds of the present invention are of low toxicity, as appreciated from Example Compound Nos. 79, 104 and 133 having up to 1 g/kg of LD50 value (mice, by an oral).

ulceration [2] = experiment: Ethanol-induced ulceration; format: in vivo, Donryu masculine rats; settings: 30 mg/kg oral, in 0.5% CMC, one hour prior to 100% ethanol, rats; for % Ulceration Inhibition: Table 2
Protocol: 2. Ethanol-induced ulceration
Five (5) ml/kg of 100% ethanol was orally administrated to Donryu masculine rats fasted for 48 hours and dehydrated for 24 hours. One hour later, the rats were put down in similar manners as mentioned above test to remove and treat the stomach. The compounds under test, suspended in 0.5% CMC, were orally administered to the rats at a dose of 5 ml/kg body weight (corresponding to 30 mg/kg body weight of that compound) one hour prior to the administration of ethanol.

| Molecule | inhibition in vivo at 30 mg/kg (ulceration [1]) | other results |
| --- | --- | --- |
| O=C1NCC(C[S+]([O-])c2nc3cccnc3s2)O1 (stereo not shown) [Example 126, 2-[(2-oxazolidion-5-yl)methylsulfinyl]thiazolo[5,4-b]pyridine] | 60% |  |
| c1cnc2sc(SCCN3CCOCC3)nc2c1 [Example 65, 2-[(2-morpholinoethyl)thio]thiazolo[5,4-b]pyridine] | 58% |  |
| CCCCOC(=O)C[S+]([O-])c1nc2cccnc2s1 (stereo not shown) [Example 79, 2-[(n-butoxycarbonylmethyl)sulfinyl]thiazolo[5,4-b]pyridine] | 76% | LD50 (Toxicity (LD50)): ≥ 1000 mg/kg; depression of erosion (ulceration [2]; control nearly 100% erosion): 98%; % Ulceration Inhibition (ulceration [2]): 98% |
| [O-][S+](CCc1ccccn1)c1nc2cccnc2s1 (stereo not shown) [Example 125, 2-[2(pyridin-2-yl)-ethylsulfinyl]thiazolo[4,5-]pyridine] | 44% |  |
| [O-][S+](CCN1CCOCC1)c1nc2cccnc2s1 (stereo not shown) [Example 138] | 68% | % Ulceration Inhibition (ulceration [2]): 97% |
| CN1CCCC(C[S+]([O-])c2nc3cccnc3s2)C1 (stereo not shown) [Example 147, 2-[(1-methylpiperidin-3-yl)methylsulfinyl]thiazolo[5,4-b]pyridine] | 64% |  |
| CCOCC[S+]([O-])c1nc2cc(Cl)cnc2s1 (stereo not shown) [Example 122] | 13% |  |
| CC1(C)CCCC(C)(C)N1CCSc1nc2cccnc2o1 [Example 48, 2-[(2-(2,2,6,6-tetramethylpiperidin-1-yl)ethyl)thio]oxazolo[5,4-b]pyridine] | 99% |  |
| CC(C)N(CC[S+]([O-])c1nc2ncc(C(F)(F)F)cc2s1)C(C)C (stereo not shown) [Example 131] | 71% |  |
| Cn1nnnc1CCCC[S+]([O-])c1nc2cccnc2s1 (stereo not shown) [Example 100, 2-[(4-(1-methyltetrazol-5-y1)butyl)sulfinyl]thiazolo[5,4-b]pyridine] | 95% |  |
| CC(C)N(CC[S+]([O-])c1nc2cccnc2s1)C(C)C (stereo not shown) [Example 149, 2-[(2-di-isopropylaminoethvl)sulfinyl]thiazolo[5,4-b]pyridine] | 99% | % Ulceration Inhibition (ulceration [2]): 94% |
| CC(C)COC(=O)C[S+]([O-])c1nc2cccnc2s1 (stereo not shown) [Example 101, 2-[(isobutoxycarbonylmethyl)sulfinyl]thiazolo[5,4-b]pyridine] | 75% |  |
| O=S(=O)(CCN1CCOCC1)c1nc2cccnc2s1 [Example 139] | 47% |  |
| CCOCC[S+]([O-])c1nc2cccnc2s1 (stereo not shown) [Example 121] | 67% |  |
| [O-][S+](CCN1CCOCC1)c1nc2cnccc2s1 (stereo not shown) [Example 140] | 58% |  |
| CCOC(=O)C[S+]([O-])c1nc2cccnc2s1 (stereo not shown) [Example 128, 2-[(ethoxycarbonylmethyl)sulfinyl]thiazolo[5,4-b]pyridine] | 91% | % Ulceration Inhibition (ulceration [2]): 99% |
| CN1CCN(CCC[S+]([O-])c2nc3cccnc3s2)CC1 (stereo not shown) [Example 151, 2-[(3-(1-methylpiperazin-4-yl)propyl)sulfinyl]thiazolo[5,4-b]pyridine] | 39% |  |
| 2-[(2-ureidoethyl)sulfinyl]thiazolo[5,4-b]pyridine [Example 146] |  | % Ulceration Inhibition (ulceration [1]; Table 1, 30 mg/kg, suspended in 0.5% CMC): 19% |
| CC(C)N(CC[S+]([O-])c1nc2cnccc2s1)C(C)C (stereo not shown) [Example 130] | 76% |  |
| CCN(CC)CC[S+]([O-])c1nc2cccnc2s1 (stereo not shown) [Example 141] | 41% |  |
| CC1(C)CCCC(C)(C)N1CC[S+]([O-])c1nc2ncc(C(F)(F)F)cc2s1 (stereo not shown) [Example 133] | 98% | LD50 (Toxicity (LD50)): ≥ 1000 mg/kg |
| Cn1nnnc1C[S+]([O-])c1nc2cccnc2s1 (stereo not shown) [Example 120, 2-[((1-methyltetrazol-5-yl)methyl)sulfinyl]thiazolo[5,4-b]pyridine] | 86% |  |

| Molecule | inhibition in vivo at 30 mg/kg (ulceration [1]) | other results |
| --- | --- | --- |
| CN1CCCC1CCSc1nc2cccnc2s1 (stereo not shown) [Example 70, 2-[(2-(1-methylpyrrolidin-2-yl)ethyl)thio]thiazolo[5,4-b]pyridine] | 42% |  |
| CC1(C)CCCC(C)(C)N1CC[S+]([O-])c1nc2cccnc2s1 (stereo not shown) [Example 129, 2-[{2-(2,2,6,6-tetramethylpiperidin-1-yl)ethyl)sulfinyl]thiazolo[5,4-b]pyridine] | 99% |  |
| CC1(C)CCCC(C)(C)N1CCSc1nc2ncccc2o1 [Example 47, 2-[(2-(2,2,6,6-tetramethylpiperidin-1-yl)ethyl)thio]oxazolo[4,5-b]pyridine] | 99% |  |
| C[S+]([O-])c1nc2cccnc2s1 (stereo not shown) [Example 103, 2-methylsulfinylthiazolo[5,4-b]pyridine] | 84% |  |
| CCOCC[S+]([O-])c1nc2cccnc2[nH]1 (stereo not shown) [Example 124] | 25% |  |
| CCOCC[S+]([O-])c1nc2cnccc2s1 (stereo not shown) [Example 123, 2-[(2-ethoxymethyl)sulfinyl]thiazolo[4,5-c]pyridine] | 15% |  |
| CCOC(=O)C[S+]([O-])c1nc2ncccc2s1 (stereo not shown) [Example 104, 2-[(ethoxycarbonylmethyl)sulfinyl]thiazolo[4,5-b]pyridine] | 68% | LD50 (Toxicity (LD50)): ≥ 1000 mg/kg |
| CC(C)=CC[S+]([O-])c1nc2cccnc2s1 (stereo not shown) [Example 127, 2-[(3-methyl-2-butenyl)sulfinyl]thiazolo[5,4-b]pyridine] | 0% |  |
| [O-][S+](CCN1CCOCC1)c1nc2cc(Cl)cnc2s1 (stereo not shown) [Example 142] | 13% |  |
| CN1CCC([S+]([O-])c2nc3cccnc3s2)CC1 (stereo not shown) [Example 148, 2-[(1-methylpiperidin-4-yl)sulfinyl]thiazolo[5,4-b]pyridine] | 78% |  |
| O=C(C[S+]([O-])c1nc2cccnc2s1)NC1CCCCC1 (stereo not shown) [Example 117, 2-[(N-cyclohexylcarbamoylmethyl)sulfinyl]thiazolo[5,4-b]pyridine] | 77% |  |
| C=CCOC(=O)C[S+]([O-])c1nc2cccnc2s1 (stereo not shown) [Example 89, 2-[(allyloxvcarbonylmethyl)sulfinyl]thiazolo[5,4-b]pyridine] | 72% |  |
| NC(=O)C[S+]([O-])c1nc2cccnc2s1 (stereo not shown) [Example 135, 2-[(carbamoylmethyl)sulfinyl]thiazolo[5,4-b]pyridine] | 86% |  |
| CC(C)N(CCS(=O)(=O)c1nc2cccnc2s1)C(C)C [Example 150, 2-[(2-di-isooropylaminoethyl)sulfonyl]thiazolo[5,4-b]pyridine] | 61% |  |
| CC(C)N(CC[S+]([O-])c1nc2ncccc2s1)C(C)C (stereo not shown) [Example 136] | 94% |  |
| CN1CCCC1CCS(=O)(=O)c1nc2cccnc2s1 (stereo not shown) [Example 145, 2-[(2-(1-methylpyrrolidin-2-yl)ethyl)sulfonyl]thiazolo[5,4-b]pyridine] | 68% |  |
| CC(=O)OCC[S+]([O-])c1nc2cccnc2s1 (stereo not shown) [Example 110, 2-[(2-acetoxyethyl)sulfinyl]thiazolo[5,4-b]pyridine] | 79% |  |
| C/C=C/COC(=O)C[S+]([O-])c1nc2cccnc2s1 (stereo not shown) [Example 84, 2-[(crotyloxycarbonylmethyl)sulfinyl]thiazolo[5,4-b]pyridine] | 75% |  |
| CN1CCCC1CC[S+]([O-])c1nc2cccnc2s1 (stereo not shown) [Example 144, 2-[(2-(1-methylpyrrolidin-2-y1)ethyl)sulfinyl]thiazolo[5,4-b]pyridine] | 85% |  |
| [O-][S+](CCN1CCOCC1)c1nc2ncccc2[nH]1 (stereo not shown) [Example 143, 2-[(2-morpholinoethyl)sulfinyl]imidazo[4,5-b]pyridine] | 54% |  |
| COC(=O)C[S+]([O-])c1nc2cccnc2s1 (stereo not shown) [Example 93, 2-[(methoxycarbonylmethyl)sulfinyl]thiazolo[5,4-b]pyridine] | 73% |  |
| CC(C)N(CCSc1nc2ncccc2o1)C(C)C [Example 51, 2-[(2-di-isopropylaminoethyl)thio]oxazolo[4,5-b]pyridine] | 88% |  |
